In ChEMBL document CHEMBL4364299, “Discovery of a Potent Kelch-Like ECH-Associated Protein 1-Nuclear Factor Erythroid 2-Related Factor 2 (Keap1-Nrf2) Protein-Protein Interaction Inhibitor with Natural Proline Structure as a Cytoprotective Agent against Acetaminophen-Induced Hepatotoxicity” (J Med Chem, 2019):
Calls of active or inactive are those of the source. The calls are words filed in the database; no cut-off is given here.

Key:
Mus musculus [1] = experiment: Protection against APAP-induced hepatotoxicity in C57BL/6 mouse assessed as decrease in MDA activity in liver at 10 to 40 mg/kg, ip treated 2 hrs prior to 22 hrs starvation followed by APAP challenge and measured after 6 hrs; type: functional, organism-based
[2] = target: T1, Nuclear factor erythroid 2-related factor 2 (Homo sapiens) (UniProt Q16236); experiment: Activation of Nrf2 in human L02 cells harboring control siRNA assessed as increase in GCLM expression at 10 uM measured after 10 hrs by Western blot analysis; type: cell-based
T1 sequence (whole entry): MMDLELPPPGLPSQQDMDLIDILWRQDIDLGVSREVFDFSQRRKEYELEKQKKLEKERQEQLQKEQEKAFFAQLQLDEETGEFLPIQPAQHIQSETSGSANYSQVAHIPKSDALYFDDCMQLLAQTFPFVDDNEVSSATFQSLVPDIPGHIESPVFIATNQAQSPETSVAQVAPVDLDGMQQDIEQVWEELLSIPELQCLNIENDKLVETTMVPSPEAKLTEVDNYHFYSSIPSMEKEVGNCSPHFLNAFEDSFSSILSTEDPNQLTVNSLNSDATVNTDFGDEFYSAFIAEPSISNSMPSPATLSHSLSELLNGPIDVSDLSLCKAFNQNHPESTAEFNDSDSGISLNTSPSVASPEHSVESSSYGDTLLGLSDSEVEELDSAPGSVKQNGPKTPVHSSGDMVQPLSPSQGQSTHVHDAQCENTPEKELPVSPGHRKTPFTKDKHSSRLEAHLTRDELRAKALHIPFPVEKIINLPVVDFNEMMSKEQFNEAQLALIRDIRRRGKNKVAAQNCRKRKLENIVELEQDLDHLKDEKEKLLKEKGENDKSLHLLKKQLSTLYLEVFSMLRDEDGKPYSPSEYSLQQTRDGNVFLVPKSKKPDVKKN

Mus musculus [3] = experiment: Protection against APAP-induced hepatotoxicity in C57BL/6 mouse assessed as decrease in Nrf2 expression in liver at 10 to 40 mg/kg, ip treated 2 hrs prior to 22 hrs starvation followed by APAP challenge and measured after 6 hrs by Dako/Mayer's hematoxylin staining-based immunohistochemical analysis; type: functional, organism-based
[4] = target: T1, Nuclear factor erythroid 2-related factor 2 (Homo sapiens); experiment: Activation of Nrf2 in human L02 cells harboring control siRNA assessed as increase in NEFL2L expression at 10 uM measured after 10 hrs by Western blot analysis; type: cell-based
Mus musculus [5] = experiment: Protection against APAP-induced hepatotoxicity in C57BL/6 mouse assessed as decrease in TNFalpha production at 10 mg/kg, ip treated 2 hrs prior to 22 hrs starvation followed by APAP challenge and measured after 6 hrs; type: functional, organism-based
L02 [6] = experiment: Cytoprotective activity against APAP-induced hepatotoxicity in human L02 cells harboring Nrf2 siRNA assessed as increase in cell viability at 5 to 10 uM preincubated for 12 hrs followed by APAP addition and measured after 24 hrs by MTT assay; type: functional, cell-based
L02 [7] = experiment: cells; conditions: Homo sapiens, L02, read-out: Activity
Description: Cytoprotective activity against APAP-induced apoptosis in human L02 cells assessed as viable cells at 10 uM preincubated for 12 hrs followed by APAP addition and measured after 12 hrs by FITC-Annexin V/propidium iodide staining based flow cytometry (Rvb = 50.6%)

L02 [8] = experiment: Upregulation of HO-1 expression in human L02 cells harboring Nrf2 siRNA at 10 uM measured after 10 hrs by Western blot analysis; type: functional, cell-based
L02 [9] = experiment: Cytoprotective activity against APAP-induced oxidative stress in human L02 cells assessed as increase in GSH/GSSG ratio at 5 to 10 uM preincubated for 12 hrs followed by APAP stimulation and measured after 24 hrs; type: functional, cell-based
L02 [10] = experiment: Cytoprotective activity against APAP-induced oxidative stress in human L02 cells assessed as decrease in ALT level at 5 to 10 uM preincubated for 12 hrs followed by APAP stimulation and measured after 24 hrs; type: functional, cell-based
[11] = target: T1, Nuclear factor erythroid 2-related factor 2 (Homo sapiens); experiment: Activation of Nrf2 in human L02 cells assessed as increase in GCLM expression measured after 12 hrs by Western blot analysis; type: cell-based
L02 [12] = conditions: Homo sapiens, 5 to 10 uM
Description: Cytoprotective activity against APAP-induced hepatotoxicity in human L02 cells assessed as inhibition of TNFalpha production at 5 to 10 uM preincubated for 12 hrs followed by APAP stimulation and measured after 24 hrs by ELISA

L02 [13] = experiment: Upregulation of HO-1 mRNA expression in human L02 cells harboring Nrf2 siRNA at 10 uM measured after 10 hrs by trizol reagent based qRT-PCR analysis; type: functional, cell-based
L02 [14] = experiment: Cytoprotective activity against APAP-induced oxidative stress in human L02 cells assessed as decrease in MDA activity at 5 to 10 uM preincubated for 12 hrs followed by APAP stimulation and measured after 24 hrs; type: functional, cell-based
L02 [15] = experiment: Upregulation of NQO-1 expression in human L02 cells harboring Nrf2 siRNA at 10 uM measured after 10 hrs by Western blot analysis; type: functional, cell-based
Mus musculus [16] = experiment: Protection against APAP-induced hepatotoxicity in C57BL/6 mouse assessed as decrease in IL1beta production at 10 mg/kg, ip treated 2 hrs prior to 22 hrs starvation followed by APAP challenge and measured after 6 hrs; type: functional, organism-based
[17] = target: T1, Nuclear factor erythroid 2-related factor 2 (Homo sapiens); experiment: Activation of Nrf2 in human L02 cells harboring control siRNA assessed as increase in NQO-1 expression at 10 uM measured after 10 hrs by Western blot analysis; type: cell-based
Mus musculus [18] = experiment: Protection against APAP-induced hepatotoxicity in C57BL/6 mouse assessed as decrease in IL6 production at 10 mg/kg, ip treated 2 hrs prior to 22 hrs starvation followed by APAP challenge and measured after 6 hrs; type: functional, organism-based
L02 [19] = experiment: Cytoprotective activity against APAP-induced hepatotoxicity in human L02 cells assessed as increase in cell viability at 1 to 20 uM preincubated for 12 hrs followed by APAP addition and measured after 24 hrs by MTT assay; type: functional, cell-based
L02 [20] = experiment: Upregulation of NEFL2L mRNA expression in human L02 cells harboring Nrf2 siRNA at 10 uM measured after 10 hrs by trizol reagent based qRT-PCR analysis; type: functional, cell-based
[21] = target: T1, Nuclear factor erythroid 2-related factor 2 (Homo sapiens); experiment: Activation of Nrf2 in human L02 cells assessed as increase in GCLM mRNA expression at 10 uM measured after 8 to 24 hrs by trizol reagent based qRT-PCR analysis; type: cell-based
[22] = target: T1, Nuclear factor erythroid 2-related factor 2 (Homo sapiens); experiment: Activation of Nrf2 in human L02 cells harboring control siRNA assessed as increase in HO-1 mRNA expression at 10 uM measured after 10 hrs by trizol reagent based qRT-PCR analysis; type: cell-based
L02 [23] = conditions: Homo sapiens, 5 to 10 uM; remark: listed apart in the source
Description: Cytoprotective activity against APAP-induced hepatotoxicity in human L02 cells assessed as inhibition of IL6 production at 5 to 10 uM preincubated for 12 hrs followed by APAP stimulation and measured after 24 hrs by ELISA

[24] = target: T1, Nuclear factor erythroid 2-related factor 2 (Homo sapiens); experiment: Activation of Nrf2 in human L02 cells harboring control siRNA assessed as increase in GCLM mRNA expression at 10 uM measured after 10 hrs by trizol reagent based qRT-PCR analysis; type: cell-based
Mus musculus [25] = experiment: Protection against APAP-induced hepatotoxicity in C57BL/6 mouse assessed as decrease in liver hemorrhage at 10 to 40 mg/kg, ip treated 2 hrs prior to 22 hrs starvation followed by APAP challenge and measured after 6 hrs by H and E staining-based light microscopic analysis; type: functional, organism-based
L02 [26] = experiment: Upregulation of NEFL2L expression in human L02 cells harboring Nrf2 siRNA at 10 uM measured after 10 hrs by Western blot analysis; type: functional, cell-based
[27] = target: T1, Nuclear factor erythroid 2-related factor 2 (Homo sapiens); experiment: Activation of Nrf2 in human L02 cells assessed as increase in GCLM expression at 10 uM measured after 4 to 72 hrs hrs by Western blot analysis; type: cell-based

COc1ccc(S(=O)(=O)N(CC(=O)O)c2ccc(N3CCC[C@H]3C(=O)O)c3ccccc23)cc1
Activity (Mus musculus [1]): Active
Activity [2]: Active
Activity (Mus musculus [3]): Active
Activity [4]: Active
Activity (Mus musculus [5]): Active
Activity (L02 [6]): inactive
viability at 10 µM (L02 [7]): 76%
Activity (L02 [8]): inactive
Activity (L02 [9]): Active
Activity (L02 [10]): Active
Activity [11]: Dose-dependent effect
inhibition (L02 [12]): Active
Activity (L02 [13]): inactive
Activity (L02 [14]): Active
Activity (L02 [15]): inactive
Activity (Mus musculus [16]): Active
Activity [17]: Active
Activity (Mus musculus [18]): Active
Activity (L02 [19]): Active
Activity (L02 [20]): inactive
Activity [21]: Active
Activity [22]: Active
inhibition (L02 [23]): Active
Activity [24]: Active
Activity (Mus musculus [25]): Active
Activity (L02 [26]): inactive
Activity [27]: Active
